Measurements reported in patent US8481028B2, “Compositions for preparing a coffee beverage comprising hydrolysed chlorogenic acid” (Nestec S.A., priority 2008, dated 2013).

Experiments:
[1] = test system: spray-dried preparation of Lactobacillus johnsonii (CNCM I-1225); assay: Treatment of NESCAFE PROTECT with spray-dried preparation of L. johnsonii, HPLC
Procedure: (§1) To this solution, 10 mg of a spray-dried preparation of Lactobacillus johnsonii (CNCM I-1225) (3.3 E9 cfu/g) were added. The mixture was then incubated at 37° C. and samples were withdrawn at different reaction times. After centrifugation (3000 g, 5 min) and filtration (0.45 μm pore size syringe filters, Millipore SLHA 025 BS) the samples were analysed by HPLC.
(§2) Coffee samples were diluted to 1% w/w and analyzed by RP-HPLC on a CC 250/4 Nucleosil 100-5-C18 column (Macherey-Nagel). The eluent system was Millipore water, 0.1% TFA and CH3CN at a flow rate of 1 mL/min. The method allowed the simultaneous determination of caffeoyl quinic acids (CQA), feruloyl quinic acids (FQA), di-caffeoyl quinic acids (diCQA), feruloyl quinic acid-lactones, caffeic acid (CA) and ferulic acid (FA) (absorbance at 325 nm) using external standard calibration curves. Results were expressed relative to the reference at time 0 (t0) or to the reference at the same time without bacteria.

[2] = test system: Bifidobacterium lactis BB12 (CNCM I-3446); assay: Treatment of coffee extracts with bacteria cells (B. lactis), HPLC
Procedure: as §2
(§3) Tested strains were harvested (centrifugation at 5000 g for 10 min) after having well reached stationary phase, corresponding to 16 hours of incubation in culture medium at 37° C. in anaerobic atmosphere without agitation. For a first activation of the strains, frozen stock cultures were inoculated in fresh media and grown overnight. This pre-culture was used to inoculate the culture.
(§4) After culture of bacteria and centrifugation, the pellets were resuspended in phosphate buffer (pH 7.0) at a concentration of 0.61 g/ml. To 200 μl of this cells preparation, 800 μl of a coffee solution (3%) was added and the mixture was incubated at 37° C. for 4 h, 16 h and 24 h.

[3] = test system: Lactobacillus johnsonii (CNCM I-1225); assay: Treatment of coffee extracts with bacteria cells (L. johnsonii), HPLC
Procedure: as §2, §3, §4

Chlorogenate esterase = assay: Incubation of coffee extracts with chlorogenate esterase, HPLC; type: biochemical, Aspergillus japonicus
Procedure: as §2
Chlorogenate esterase (24 U/g), derived from Aspergillus japonicus (Kikkoman, Japan). Tannase from Aspergillus oryzae (Kikkoman, Japan) Preparation of Bacteria Cells
A solution of chlorogenate esterase (25 mg) in 200 μl phosphate buffer (pH 7.0) was added to 800 μl of a coffee solution (3%). The mixture was then incubated at 37° C. for 4 h, 16 h and 24 h. After reaction time, the enzymatic activity was stopped by heat treatment (3 min, 90° C.) and the mixture was filtered before analysis.

[4] = test system: Lactobacillus johnsonii (CNCM I-1225) extract (lysed cells); assay: Treatment of NESCAFE PROTECT with L. johnsonii extract (lysed cells), HPLC; type: biochemical
Procedure: Cells of L. johnsonii (CNCM I-1225) were grown (7.0 E08 cfu/ml) and centrifuged (5000 g, 10 min), the pellets were resuspended in phosphate buffer (50 mM, pH 7.0) at a concentration of 0.61 g/ml. The cells were then lysed using the glass-beads method. 600 μl of cells preparation were put in screw-cap tubes and 600 μl of glass-beads were added at 0° C. The tubes were then put into a Mini-Beadbeater for 1 min of intense shaking, cooled in ice, and put another 1 min in the Mini-Beadbeater. […] Samples were withdrawn at different reaction times, centrifuged (3000 g, 5 min), filtered through 0.45 μm pore size syringe filters (Millipore SLHA 025 BS) and analysed by HPLC.
as §2

[5] = test system: Lactobacillus johnsonii (CNCM I-1225) fresh cells; assay: Treatment of NESCAFE PROTECT with L. johnsonii fresh cells, HPLC of chlorogenic and phenolic acids
Procedure: Cells of L. johnsonii (CNCM I-1225) were grown (7.0 E08 cfu/ml) and centrifuged (5000 g, 10 min), the pellets were resuspended in phosphate buffer (50 mM, pH 7.0) at a concentration of 0.61 g/ml. […] Samples were withdrawn at different reaction times, centrifuged (3000 g, 5 min) and filtered through 0.45 μm pore size syringe filters (Millipore SLHA 025 BS) and analysed by HPLC.
A reaction control was run in parallel under the same reaction conditions but without bacteria.
as §2

[6] = test system: spray-dried preparation of Lactobacillus johnsonii (CNCM I-1225); assay: Treatment of green coffee extract with spray-dried preparation of L. johnsonii, HPLC
Procedure: as §1, with “30 mg of a dried green coffee extract was dissolved in 1 ml phosphate buffer (50 mM, pH 7.0) or in 1 ml water. To” for “To”, “johnsonii” for “johnsonii (CNCM I-1225)”, “cfu/g) was” for “cfu/g) were”
as §2

[7] = test system: concentrated preparation of Lactobacillus johnsonii (CNCM I-1225); assay: Treatment of NESCAFE with concentrated preparation of L. johnsonii, HPLC
Procedure: 400 mg of NESCAFE SPECIAL FILTRE® (a dried extract of roasted coffee beans) were dissolved in 1 ml of boiling water and the solution was cooled to 37° C. at room temperature. To 250 μl of this coffee solution, different amounts of concentrated preparation of Lactobacillus johnsonii (50 μl, 100 μl, 350 μl, 750 μl) were added and the volume was adjusted to 1 ml with water. The mixtures were than incubated at 37° C. for 2 h and 4 h. After centrifugation (3000 g, 5 min) and filtration the samples were analysed by HPLC.
as §2

Substance: feruloyl quinic acids [FQA]
- % relative to untreated control at t = 0 ([1]; 2 h): 82%
- % relative to untreated control at t = 0 ([1]; 6 h): 60%
- % relative to untreated control at t = 0 ([1]; 24 h): 34%
- % relative to untreated control at t = 0 ([2]; NESCAFE PROTECT + Bifidobacterium lactis, 4 h): 54%
- % relative to untreated control at t = 0 ([2]; NESCAFE PROTECT + Bifidobacterium lactis, 16 h): 23%
- % relative to untreated control at t = 0 ([2]; NESCAFE PROTECT + Bifidobacterium lactis, 24 h): 20%
- % relative to untreated control at t = 0 ([2]; green coffee extract + Bifidobacterium lactis, 4 h): 33%
- % relative to untreated control at t = 0 ([2]; green coffee extract + Bifidobacterium lactis, 16 h): 12%
- % relative to untreated control at t = 0 ([2]; green coffee extract + Bifidobacterium lactis, 24 h): 6%
- % relative to untreated control at t = 0 ([3]; NESCAFE PROTECT + Lactobacillus johnsonii, 4 h): 42%
- % relative to untreated control at t = 0 ([3]; NESCAFE PROTECT + Lactobacillus johnsonii, 16 h): 21%
- % relative to untreated control at t = 0 ([3]; NESCAFE PROTECT + Lactobacillus johnsonii, 24 h): 20%
- % relative to untreated control at t = 0 ([3]; green coffee extract + Lactobacillus johnsonii, 4 h): 49%
- % relative to untreated control at t = 0 ([3]; green coffee extract + Lactobacillus johnsonii, 16 h): 15%
- % relative to untreated control at t = 0 ([3]; green coffee extract + Lactobacillus johnsonii, 24 h): 15%
- % relative to untreated control at t = 0 (Chlorogenate esterase; NESCAFE PROTECT + Chlorogenate esterase, 4 h): 54%
- % relative to untreated control at t = 0 (Chlorogenate esterase; NESCAFE PROTECT + Chlorogenate esterase, 16 h): 15%
- % relative to untreated control at t = 0 (Chlorogenate esterase; NESCAFE PROTECT + Chlorogenate esterase, 24 h): 14%
- % relative to untreated control at t = 0 (Chlorogenate esterase; green coffee extract + Chlorogenate esterase, 4 h): 73%
- % relative to untreated control at t = 0 (Chlorogenate esterase; green coffee extract + Chlorogenate esterase, 16 h): 24%
- % relative to untreated control at t = 0 (Chlorogenate esterase; green coffee extract + Chlorogenate esterase, 24 h): 23%
- Concentration in % relative to untreated reference at t = 0 ([4]; 2 h, cell preparation 100.0 uL): 36%
- Concentration in % relative to untreated reference at t = 0 ([4]; 2 h, cell preparation 350.0 uL): 15%
- Concentration in % relative to untreated reference at t = 0 ([4]; 6 h, cell preparation 100.0 uL): 18%
- Concentration in % relative to untreated reference at t = 0 ([4]; 6 h, cell preparation 350.0 uL): 11%
- Concentration in % relative to untreated reference at t = 0 ([5]; 6 h, cell preparation 100 uL): 42%
- Concentration in % relative to untreated reference at t = 0 ([5]; 6 h, cell preparation 350 uL): 17%
- Concentration in % relative to untreated reference at t = 0 ([5]; 6 h, cell preparation 750 uL): 8%
- Concentration in % relative to untreated reference at t = 0 ([5]; 24 h, cell preparation 100 uL): 17%
- Concentration in % relative to untreated reference at t = 0 ([5]; 24 h, cell preparation 350 uL): 4%
- Concentration in % relative to untreated reference at t = 0 ([5]; 24 h, cell preparation 750 uL): 0%
- % relative to untreated control at t = 0 ([6]; 4 h): 79%
- % relative to untreated control at t = 0 ([6]; 6 h): 71%
- % relative to untreated control at t = 0 ([6]; 16 h): 48%
- % relative to untreated control at t = 0 ([6]; 24 h): 52%
- % relative to untreated control at t = 0 ([7]; cell amount 50 μL/1 mL, 2 h): 90%
- % relative to untreated control at t = 0 ([7]; cell amount 50 μL/1 mL, 4 h): 89%
- % relative to untreated control at t = 0 ([7]; cell amount 100 μL/1 mL, 2 h): 82%
- % relative to untreated control at t = 0 ([7]; cell amount 100 μL/1 mL, 4 h): 74%
- % relative to untreated control at t = 0 ([7]; cell amount 350 μL/1 mL, 2 h): 61%
- % relative to untreated control at t = 0 ([7]; cell amount 350 μL/1 mL, 4 h): 53%
- % relative to untreated control at t = 0 ([7]; cell amount 750 μL/1 mL, 2 h): 41%
- % relative to untreated control at t = 0 ([7]; cell amount 750 μL/1 mL, 4 h): 37%
